{"source": "ChEMBL document CHEMBL1201862", "about": "“PubChem BioAssay data set” (2004)", "key": {"[1]": {"target": "Voltage-dependent T-type calcium channel subunit alpha-1H (Homo sapiens, UniProt O95180)", "sequence (O95180 whole entry)": "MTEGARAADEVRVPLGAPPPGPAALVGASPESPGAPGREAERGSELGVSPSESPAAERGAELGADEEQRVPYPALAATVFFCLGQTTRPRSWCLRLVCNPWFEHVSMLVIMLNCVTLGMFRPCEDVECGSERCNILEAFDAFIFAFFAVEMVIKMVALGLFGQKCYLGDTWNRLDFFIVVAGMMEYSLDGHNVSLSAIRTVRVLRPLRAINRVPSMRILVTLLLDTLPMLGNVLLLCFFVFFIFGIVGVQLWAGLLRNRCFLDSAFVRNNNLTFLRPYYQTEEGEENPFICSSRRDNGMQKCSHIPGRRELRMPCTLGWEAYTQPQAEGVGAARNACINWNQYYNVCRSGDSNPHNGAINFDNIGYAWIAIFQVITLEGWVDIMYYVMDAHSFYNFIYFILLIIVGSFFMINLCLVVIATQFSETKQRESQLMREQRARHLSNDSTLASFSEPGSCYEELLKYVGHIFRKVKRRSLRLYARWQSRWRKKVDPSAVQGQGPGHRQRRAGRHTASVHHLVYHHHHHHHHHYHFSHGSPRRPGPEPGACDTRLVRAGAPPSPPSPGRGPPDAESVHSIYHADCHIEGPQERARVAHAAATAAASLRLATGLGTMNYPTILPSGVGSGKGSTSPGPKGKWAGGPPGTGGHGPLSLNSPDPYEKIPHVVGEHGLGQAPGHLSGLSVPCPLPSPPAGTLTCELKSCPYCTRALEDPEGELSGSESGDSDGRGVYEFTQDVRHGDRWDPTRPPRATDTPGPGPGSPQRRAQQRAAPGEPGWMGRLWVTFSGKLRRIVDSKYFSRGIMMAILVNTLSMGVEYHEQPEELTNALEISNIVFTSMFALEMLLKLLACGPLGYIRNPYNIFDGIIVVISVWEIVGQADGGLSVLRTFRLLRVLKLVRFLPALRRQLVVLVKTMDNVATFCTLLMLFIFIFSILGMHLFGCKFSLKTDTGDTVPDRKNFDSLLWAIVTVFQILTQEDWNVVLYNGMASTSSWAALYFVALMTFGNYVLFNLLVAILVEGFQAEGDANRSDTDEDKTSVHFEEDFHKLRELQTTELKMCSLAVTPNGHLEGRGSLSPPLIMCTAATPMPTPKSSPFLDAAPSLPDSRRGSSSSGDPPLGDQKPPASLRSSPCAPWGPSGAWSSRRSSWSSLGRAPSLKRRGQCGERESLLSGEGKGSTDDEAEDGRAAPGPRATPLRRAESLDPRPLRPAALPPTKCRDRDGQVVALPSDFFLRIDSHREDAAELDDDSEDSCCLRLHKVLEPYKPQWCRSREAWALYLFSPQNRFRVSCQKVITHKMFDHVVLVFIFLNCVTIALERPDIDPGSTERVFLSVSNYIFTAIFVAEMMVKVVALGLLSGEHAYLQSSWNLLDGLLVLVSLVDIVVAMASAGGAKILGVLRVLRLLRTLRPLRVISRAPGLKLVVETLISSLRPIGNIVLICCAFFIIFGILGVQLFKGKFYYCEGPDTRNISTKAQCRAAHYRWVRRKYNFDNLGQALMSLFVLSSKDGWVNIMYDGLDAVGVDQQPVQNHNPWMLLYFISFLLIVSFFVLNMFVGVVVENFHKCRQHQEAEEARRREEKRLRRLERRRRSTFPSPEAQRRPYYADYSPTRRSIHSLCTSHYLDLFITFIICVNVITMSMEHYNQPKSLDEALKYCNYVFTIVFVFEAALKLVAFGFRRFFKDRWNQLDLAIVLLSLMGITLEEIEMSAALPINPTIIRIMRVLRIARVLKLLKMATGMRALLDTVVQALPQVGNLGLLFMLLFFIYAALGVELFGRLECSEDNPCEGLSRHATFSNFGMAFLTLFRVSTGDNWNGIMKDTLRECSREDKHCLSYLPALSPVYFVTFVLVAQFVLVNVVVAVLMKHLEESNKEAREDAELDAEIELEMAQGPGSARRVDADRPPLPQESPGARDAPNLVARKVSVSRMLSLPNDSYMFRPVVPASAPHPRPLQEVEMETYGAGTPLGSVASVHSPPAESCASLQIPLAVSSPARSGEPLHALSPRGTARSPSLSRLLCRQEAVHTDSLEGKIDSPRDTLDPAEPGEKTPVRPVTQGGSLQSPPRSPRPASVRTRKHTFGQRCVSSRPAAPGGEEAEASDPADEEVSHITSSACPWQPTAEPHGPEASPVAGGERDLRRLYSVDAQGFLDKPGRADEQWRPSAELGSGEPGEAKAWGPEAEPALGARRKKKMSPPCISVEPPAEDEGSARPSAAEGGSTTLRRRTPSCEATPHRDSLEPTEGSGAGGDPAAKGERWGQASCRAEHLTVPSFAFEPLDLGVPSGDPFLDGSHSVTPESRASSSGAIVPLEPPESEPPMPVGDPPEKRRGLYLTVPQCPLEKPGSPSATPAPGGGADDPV", "assay_type": "functional"}, "[2]": {"target": "T1, Ubiquitin-conjugating enzyme E2 N (Homo sapiens, UniProt P61088)", "T1 sequence (P61088 whole entry)": "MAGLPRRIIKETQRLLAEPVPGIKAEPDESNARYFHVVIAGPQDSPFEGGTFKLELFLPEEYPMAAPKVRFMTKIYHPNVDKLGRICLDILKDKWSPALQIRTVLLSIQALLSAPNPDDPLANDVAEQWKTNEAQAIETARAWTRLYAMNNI", "assay_type": "functional"}, "[3]": {"target": "T2, Calpain-2 catalytic subunit (Sus scrofa, UniProt P43367)", "T2 sequence (P43367 whole entry)": "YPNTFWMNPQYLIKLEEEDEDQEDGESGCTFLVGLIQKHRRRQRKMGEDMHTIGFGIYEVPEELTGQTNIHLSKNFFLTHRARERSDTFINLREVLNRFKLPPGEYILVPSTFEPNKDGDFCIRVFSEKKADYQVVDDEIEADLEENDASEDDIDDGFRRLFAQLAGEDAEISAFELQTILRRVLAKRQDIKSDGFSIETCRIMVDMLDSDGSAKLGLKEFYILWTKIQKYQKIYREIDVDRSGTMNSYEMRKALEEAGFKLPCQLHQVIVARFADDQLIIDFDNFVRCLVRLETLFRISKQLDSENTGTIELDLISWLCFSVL", "test": "pig calpain II inhibitor potency, dose response, biochemical, fluorogenic peptide substrate (AID 1420)", "assay_type": "functional"}, "[4]": {"test": "growth suppression of beta-catenin-knockout colon cells, dose response, cell-based, HCT116, human colon tumor (AID 1045);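 further: HCT116 colon tumor cells with beta catenin knocked out; cells exposed to compound for 60 hours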", "assay_type": "functional"}, "[5]": {"test": "growth suppression of PTEN-null colon cells, dose response, cell-based, HCT116 PTEN knockout (AID 1047);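 further: HCT116 colon tumor cells with PTEN knocked out; cells exposed to compound for 60 hours before readout; potency for loss of cell viability measured by luminescence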", "assay_type": "functional"}, "[6]": {"test": "P. falciparum Dd2 growth inhibitors, dose response, SYBR Green, cherry-picked samples (AID 1159567)", "assay_type": "functional, cell-based"}, "[7]": {"test": "HepG2 cell cytotoxicity, dose response, cytotoxicity control, cherry-picked samples (AID 1159577)", "assay_type": "functional, cell-based"}, "H9c2": {"tested_on": "H9c2", "test": "cells", "assay_type": "functional, cell-based", "conditions": "Rattus norvegicus, H9c2, Myocardium"}, "[8]": {"test": "microbe, parasite or virus in culture", "assay_type": "functional", "conditions": "Mycobacterium tuberculosis"}, "[9]": {"test": "Luminescence Cell-Based Dose Retest to Confirm Inhibitors of Cancer Stem Cells. [Related pubchem assays (depositor defined):AID2717, AID2721]", "assay_type": "functional", "conditions": "Homo sapiens"}, "[10]": {"test": "inhibitors of intracellular T. cruzi replication, confirmation, NIH3T3 host cells, beta-gal luminescence (AID 2044);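 further: luminescent beta-galactosidase reporter signal from transgenic T. cruzi replicating inside host cells; inhibitors lower the luminescence signal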", "assay_type": "functional, cell-based"}, "[11]": {"test": "cytotoxicity toward NIH3T3 fibroblasts, dose response, counter-screen, cell-based, ATP luminescence, mouse fibroblasts (AID 2010);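 further: cells exposed to compound for about 90 hours before reading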", "assay_type": "functional"}}, "note": "Active and inactive are the calls of the source.", "data": [{"smiles": "CCOc1ccc(C2CC(c3cccc(OC)c3OC)n3nnnc3N2)cc1Cl", "note": "(stereo unspecified)", "values": [{"measurement": "EC50", "setting": "[1]", "result": "2.66 µM (active)"}]}, {"smiles": "COc1ccc(-c2nnc(SCC(=O)Nc3cc(F)ccc3C)o2)cc1", "values": [{"measurement": "IC50", "setting": "[2]", "result": "> 20 µM (inactive)"}]}, {"smiles": "Cn1c(N)c(C(=O)COC(=O)CCCc2nc3ccccc3s2)c(=O)n(C)c1=O", "values": [{"measurement": "IC50", "setting": "[3]", "result": "> 50 µM (not active)"}]}, {"smiles": "COc1ccccc1N1CCN(C(=O)C(Sc2ccccc2)c2ccccc2)CC1", "note": "(stereo unspecified)", "values": [{"measurement": "EC50", "setting": "[1]", "result": "4.93 µM (active)"}]}, {"smiles": "O=C(CCC(=O)N1CCN(S(=O)(=O)c2ccc(Cl)cc2)CC1)Nc1cccc(Br)c1", "values": [{"measurement": "IC50", "setting": "[3]", "result": "24.9 µM (not active)"}]}, {"smiles": "O=C(/C=C/c1ccc(Br)cc1)c1ccco1", "values": [{"measurement": "EC50", "setting": "[4]", "result": "10.9 µM (active)"}, {"measurement": "EC50", "setting": "[5]", "result": "11.5 µM (active)"}]}, {"smiles": "Nc1c(C(=O)C2CC2)sc2nc(-c3ccccc3)cc(C(F)(F)F)c12", "values": [{"measurement": "EC50", "setting": "[1]", "result": "2.51 µM (active)"}]}, {"smiles": "CN(C)C(=O)c1cccc(-c2cccc(-c3nc(C(=O)NCc4ccccc4)cc4c3[C@@H](CCO)N([S@+]([O-])C(C)(C)C)C4)c2)c1", "values": [{"measurement": "AC50", "setting": "[6]", "result": "1.17 µM (active)"}, {"measurement": "AC50", "setting": "[7]", "result": "17.5 µM (active)"}]}, {"smiles": "CCN(CC)S(=O)(=O)c1ccc(Nc2nc3ccccc3n3nnnc23)cc1", "values": [{"measurement": "EC50", "setting": "[4]", "result": "35.3 µM (active)"}, {"measurement": "EC50", "setting": "[5]", "result": "22.1 µM (active)"}, {"measurement": "IC50", "setting": "H9c2", "result": "> 79 µM (inactive)"}]}, {"smiles": "Cc1ccccc1S(=O)(=O)N1CC(=O)N2[C@H](C1)[C@@H](c1ccc(C#Cc3ccccc3)cc1)[C@@H]2CO", "values": [{"measurement": "AC50", "setting": "[6]", "result": "3.52 µM (active)"}, {"measurement": "AC50", "setting": "[7]", "result": "15.8 µM (active)"}]}, {"smiles": "C/C(=N\\NC(=O)CC(C)C)c1c(C(F)(F)F)nn(-c2nc3ccccc3s2)c1O", "values": [{"measurement": "CC50", "setting": "[8]", "result": "37.4 µM (active)"}]}, {"smiles": "CCC(=O)N1c2ccc(C)cc2C2=NN=C(S)NC21O", "note": "(stereo unspecified)", "values": [{"measurement": "IC50", "setting": "[2]", "result": "> 20 µM (inactive)"}]}, {"smiles": "COc1ccc(N2CCN(Cc3cc4c(cc3O)CCC4)CC2)cc1", "values": [{"measurement": "CC50", "setting": "[8]", "result": "> 40 µM (active)"}]}, {"smiles": "CN1CCN(Cc2nc3ccccc3c(=O)n2Cc2nc(-c3ccc4ccccc4c3)cs2)CC1", "values": [{"measurement": "CC50", "setting": "[8]", "result": "6.44 µM (active)"}, {"measurement": "AC50", "setting": "[9]", "result": "4.28 µM (active)"}, {"measurement": "EC50", "setting": "[4]", "result": "4.02 µM (active)"}, {"measurement": "EC50", "setting": "[5]", "result": "4.11 µM (active)"}]}, {"smiles": "Cc1ccc(C(NC(=O)N2CCOCC2)=C(Cl)Cl)cc1F", "values": [{"measurement": "EC50", "setting": "[4]", "result": "4.71 µM (active)"}, {"measurement": "EC50", "setting": "[5]", "result": "6.69 µM (active)"}]}, {"smiles": "Cc1ccc(-c2cc(C(F)F)n3ncc(C(=O)Nc4c(C)nn(Cc5ccccc5Cl)c4C)c3n2)cc1", "values": [{"measurement": "EC50", "setting": "[4]", "result": "8.23 µM (active)"}, {"measurement": "EC50", "setting": "[5]", "result": "8.84 µM (active)"}]}, {"smiles": "CCOc1ccc(-c2n[nH]cc2Oc2cccc(OC)c2)c(O)c1", "values": [{"measurement": "IC50", "setting": "[2]", "result": "> 20 µM (inactive)"}]}, {"smiles": "C[C@H](CO)N1C[C@H](C)[C@H](CN(C)C(=O)[C@H](C)c2ccccc2)OCc2ccccc2-c2c(n(C)c3ccccc23)C1=O", "values": [{"measurement": "AC50", "setting": "[6]", "result": "4.15 µM (active)"}, {"measurement": "AC50", "setting": "[7]", "result": "34.4 µM (active)"}]}, {"smiles": "COC(=O)c1[nH]c2cc(OC)ccc2c1NC(=O)CN1CCN(c2cccc(C)c2)C(C)C1", "note": "(stereo unspecified)", "values": [{"measurement": "CC50", "setting": "[8]", "result": "30.6 µM (active)"}]}, {"smiles": "CC(C)COP(=O)(OCC(C)C)C(Nc1ccccc1)c1ccc2c(c1)OCO2", "note": "(stereo unspecified)", "values": [{"measurement": "IC50", "setting": "[3]", "result": "11.4 µM (not active)"}, {"measurement": "IC50", "setting": "H9c2", "result": "> 79 µM (inactive)"}]}, {"smiles": "Cc1cc(NS(=O)(=O)c2ccc(NC(=S)NC(=O)c3ccc(C(C)(C)C)cc3)cc2)no1", "values": [{"measurement": "IC50", "setting": "[3]", "result": "26.1 µM (not active)"}]}, {"smiles": "O=C(CSc1nc(N2CCCCC2)nc(N2CCCCC2)n1)N1CCN(c2ccccc2)CC1", "values": [{"measurement": "EC50", "setting": "[1]", "result": "5.36 µM (active)"}]}, {"smiles": "CCc1ccc(-c2nc(CN3CCC(C(=O)N4CCN(c5ccccn5)CC4)CC3)c(C)o2)cc1", "values": [{"measurement": "EC50", "setting": "[4]", "result": "7.28 µM (active)"}, {"measurement": "EC50", "setting": "[5]", "result": "7.51 µM (active)"}]}, {"smiles": "Cc1ccc(-c2csc(NC(=O)c3cccc(N4C(=O)CCC4=O)c3)n2)o1", "values": [{"measurement": "EC50", "setting": "[1]", "result": "3.78 µM (active)"}]}, {"smiles": "O=c1c2cc(NC(=S)NCCCN3CCC(Cc4ccccc4)CC3)ccc2nc2n1CCCCC2", "values": [{"measurement": "EC50", "setting": "[10]", "result": "2.09 µM (active)"}, {"measurement": "AC50", "setting": "[9]", "result": "9.58 µM (active)"}, {"measurement": "EC50", "setting": "[11]", "result": "> 60 µM (not active)"}, {"measurement": "IC50", "setting": "[2]", "result": "> 20 µM (inactive)"}]}]}
